In patent publication US7479483B2, “Tumor-targeted drug delivery systems and uses thereof” (G. Gaslini Children's Hospital, priority 2003, dated 2009):

Test system: SH-SY5Y adrenal tumors
Test: In vivo therapeutic studies, orthotopic neuroblastoma xenograft
Design: species or system SCID mice
Details: orthotopic SH-SY5Y model; free DXR by standard or metronomic dosing
Experimental: Five-week-old female SCID mice were purchased from Harlan Laboratories (Harlan Italy-S. Pietro al Natisone, UD). Mice (6-8 mice/group) were anaesthetised and injected with the different NB cell lines (2.5×10^6 cells in 20 μl of HEPES buffer), after laparatomy, in the capsule of the left adrenal gland. […] Mice were monitored at least two times weekly for evidence of tumor development, tumor size was quantified, and evidence of tumor-associated morbidity was noted.
2.5×10^6 SH-SY5Y cells were injected orthotopically in the left adrenal gland of mice. […] At various time-points, mice were sacrificed and tumors were measured with calipers. Tumor volumes were calculated by the formula π/6 [w1× (w2)^2], where w1 represented the largest tumor diameter and w2 represented the smallest tumor diameter. The body weight and general physical status of the animals were recorded daily and the mice were terminated when tumor reached 1000-1200 mm^3. […] Weight due to tumor burden was calculated by subtracting the normal wet organ weight from each tumor-bearing organ. In some experiments, mice were monitored routinely for weight loss, and survival times were used as the main criterion for determining treatment efficacy.
The statistical significance of differential findings between experimental groups and controls was determined by Student's t-test and considered significant if two-tailed P values were <0.05. […]

COc1cccc2c1C(=O)c1c(O)c3c(c(O)c1C2=O)C[C@@](O)(C(=O)CO)C[C@@H]3O[C@H]1C[C@H](N)[C@H](O)[C@H](C)O1 [free DXR, doxorubicin]
therapeutic effect: lack of therapeutic effect
